“Also recorded” adds a separate entry of the source. Like-named read-outs stand apart in the source and are kept apart here.

Experiment [1] relates to MCF-7 cells forced to express ACSL4. As to the kind of experiment: Tamoxifen sensitivity of MCF-7 cells forced to express ACSL4. The following applies: forced ACSL4 expression in MCF-7, FIG. 16. The experiment is classed as cell-based, human. The protocol: (§1) An analysis was performed on breast cancer cell lines that are hormone receptor positive and positive for ACSL4 expression. […] In the present study, estrogen responsive MCF-7 cells, which are ACSL4-negative, were forced to express […]. […] The results were confirmed using conditional and stable transfection techniques.

In a further experiment the test system is ACSL6. As to conditions: Van Horn et al. 2005; cited from earlier work.
In a further experiment the target is T1, ACSL5 (Rattus norvegicus, UniProt O88813).
T1 sequence (O88813 1-683): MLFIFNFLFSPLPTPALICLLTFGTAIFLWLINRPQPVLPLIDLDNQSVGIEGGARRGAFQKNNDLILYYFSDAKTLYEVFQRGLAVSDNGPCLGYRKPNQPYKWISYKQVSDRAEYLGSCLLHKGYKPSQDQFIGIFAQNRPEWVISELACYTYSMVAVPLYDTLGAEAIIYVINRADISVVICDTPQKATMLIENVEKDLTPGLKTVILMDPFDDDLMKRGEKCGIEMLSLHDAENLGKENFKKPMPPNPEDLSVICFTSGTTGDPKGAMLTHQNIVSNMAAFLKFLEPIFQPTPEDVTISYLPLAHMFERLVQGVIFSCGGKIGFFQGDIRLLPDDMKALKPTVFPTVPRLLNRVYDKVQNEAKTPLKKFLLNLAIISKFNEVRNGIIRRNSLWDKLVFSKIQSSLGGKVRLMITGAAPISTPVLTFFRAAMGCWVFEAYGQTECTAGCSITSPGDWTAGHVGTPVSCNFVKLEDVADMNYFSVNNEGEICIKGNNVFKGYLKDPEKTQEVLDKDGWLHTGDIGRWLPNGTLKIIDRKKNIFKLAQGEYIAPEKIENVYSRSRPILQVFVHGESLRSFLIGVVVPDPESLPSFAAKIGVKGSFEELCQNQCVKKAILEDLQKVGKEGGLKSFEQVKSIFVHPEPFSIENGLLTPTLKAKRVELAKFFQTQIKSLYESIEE
As to conditions: Van Horn et al. 2005; cited from earlier work.

A further experiment has as its target ACSL3 (Rattus norvegicus, UniProt Q63151). The following applies: Van Horn et al. 2005; cited from earlier work.
The target of a further experiment is ACSL4 (Rattus norvegicus, UniProt O35547). As to conditions: cited from earlier work.
The subject of experiment [2] is a variety of cancer cells. The following applies: Mashima et al. 2009; cited from earlier work.
The target of a further experiment is T2, ACSL1 (Rattus norvegicus, UniProt P18163).
T2 sequence (P18163 1-699): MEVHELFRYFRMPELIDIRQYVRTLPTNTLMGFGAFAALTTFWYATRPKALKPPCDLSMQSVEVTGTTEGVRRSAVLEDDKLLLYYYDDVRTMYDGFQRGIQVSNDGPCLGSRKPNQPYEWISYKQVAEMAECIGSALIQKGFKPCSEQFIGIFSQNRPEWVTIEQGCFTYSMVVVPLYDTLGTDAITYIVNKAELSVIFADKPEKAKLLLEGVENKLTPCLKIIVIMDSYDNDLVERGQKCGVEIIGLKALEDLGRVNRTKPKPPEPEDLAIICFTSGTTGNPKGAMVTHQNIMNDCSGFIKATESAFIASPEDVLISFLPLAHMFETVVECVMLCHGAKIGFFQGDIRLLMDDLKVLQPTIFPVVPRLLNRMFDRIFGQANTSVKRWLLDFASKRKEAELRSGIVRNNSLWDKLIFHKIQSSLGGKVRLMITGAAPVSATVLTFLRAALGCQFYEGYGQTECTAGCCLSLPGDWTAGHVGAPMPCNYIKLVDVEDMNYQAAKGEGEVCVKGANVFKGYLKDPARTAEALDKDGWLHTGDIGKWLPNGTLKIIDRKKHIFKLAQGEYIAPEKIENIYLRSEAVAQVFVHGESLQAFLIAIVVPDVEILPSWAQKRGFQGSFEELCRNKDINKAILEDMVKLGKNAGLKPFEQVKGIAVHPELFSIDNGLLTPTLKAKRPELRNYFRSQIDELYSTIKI
As to conditions: cited from earlier work.

The subject of a further experiment is MDA-MB-231 cells. As to the kind of experiment: Effect of triacsin C on relative cell number of MDA-MB-231 control and ACSL4 knockdown cells. The experiment is classed as cell-based, human. The following applies: for IC50: FIG. 7C, read-out: half-maximal inhibitory concentration. The protocol: Relative differences in cell number were quantitated using the Cell Titer 96 AQueous Reagent purchased from Promega (Madison, Wis.). Protocols used were as described by the manufacturer.
MDA-MB-231 cells were treated for 48 hours with either a control or ACSL4-specific siRNA. The siRNA was a SmartPool siRNA obtained from Dharmacon, consisting of 4 separate siRNAs.
Next, the effect of triacsin C treatment on MDA-MB-231 control and knockdown cells were compared. […] Mashima et al., Cancer Sci., 100: 1556-1562 (2009).

A further experiment concerns MDA-MB-415 cells. The experiment in a line: Growth response to estrogen, MDA-MB-415 cells. The experiment is classed as cell-based, human. As to conditions: MDA-MB-415 (ER-positive, ACSL4-positive), versus control without estrogen, FIG. 5. The protocol: (§2) As indicated above in the results of Example 2, two cell lines which were ER-positive where also ACSL4-positive. A study comparing cell growth in the presence of estrogen of one of these cell lines (MDA-MB-415) to a cell line which is ER-positive and ACSL4 negative (MCF-7) was performed.

In another experiment the test system is MCF-7 cells. As to the kind of experiment: Growth response to estrogen, MCF-7 cells. It counts as cell-based, human. The following applies: MCF-7 (ER-positive, ACSL4-negative), versus estrogen-free control, FIG. 5, FIG. 6A. On the procedure:
as §2
(§3) Additionally, a study was performed in which cell growth in the presence of estrogen of the estrogen dependent MCF-7 cells, which are ACSL4 negative, were compared to modified MCF-7 cells, which were induced to express ACSL4.

In experiment [3] the test system is MCF-7 cells genetically manipulated to express ACSL4. The experiment in a line: Growth response to estrogen, MCF-7 cells genetically manipulated to express ACSL4. It counts as cell-based, human. As to conditions: MCF-7 expressing ACSL4, versus estrogen-free conditions, FIG. 6B. On the procedure:
as §3, §1

Chain of ACSL4 (O35547 whole entry): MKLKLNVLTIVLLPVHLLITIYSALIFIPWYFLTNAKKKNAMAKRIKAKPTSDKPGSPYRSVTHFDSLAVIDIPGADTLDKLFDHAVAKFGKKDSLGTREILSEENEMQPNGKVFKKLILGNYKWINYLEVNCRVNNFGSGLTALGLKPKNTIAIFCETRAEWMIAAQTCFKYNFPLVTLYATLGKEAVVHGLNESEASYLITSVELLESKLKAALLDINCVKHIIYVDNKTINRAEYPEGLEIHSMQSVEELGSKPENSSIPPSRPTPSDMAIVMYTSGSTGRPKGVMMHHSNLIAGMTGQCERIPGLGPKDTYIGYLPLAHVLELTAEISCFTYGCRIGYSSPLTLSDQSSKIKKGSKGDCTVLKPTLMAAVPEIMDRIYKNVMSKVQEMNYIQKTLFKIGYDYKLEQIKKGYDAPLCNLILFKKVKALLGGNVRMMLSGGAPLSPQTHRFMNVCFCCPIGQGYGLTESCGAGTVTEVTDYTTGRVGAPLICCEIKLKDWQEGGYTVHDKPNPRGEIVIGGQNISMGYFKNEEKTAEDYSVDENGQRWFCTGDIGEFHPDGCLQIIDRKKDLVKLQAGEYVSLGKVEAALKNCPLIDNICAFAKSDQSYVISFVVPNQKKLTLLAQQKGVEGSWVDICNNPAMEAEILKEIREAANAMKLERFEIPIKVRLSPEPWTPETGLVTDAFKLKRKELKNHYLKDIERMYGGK
Chain of ACSL3 (Q63151 whole entry): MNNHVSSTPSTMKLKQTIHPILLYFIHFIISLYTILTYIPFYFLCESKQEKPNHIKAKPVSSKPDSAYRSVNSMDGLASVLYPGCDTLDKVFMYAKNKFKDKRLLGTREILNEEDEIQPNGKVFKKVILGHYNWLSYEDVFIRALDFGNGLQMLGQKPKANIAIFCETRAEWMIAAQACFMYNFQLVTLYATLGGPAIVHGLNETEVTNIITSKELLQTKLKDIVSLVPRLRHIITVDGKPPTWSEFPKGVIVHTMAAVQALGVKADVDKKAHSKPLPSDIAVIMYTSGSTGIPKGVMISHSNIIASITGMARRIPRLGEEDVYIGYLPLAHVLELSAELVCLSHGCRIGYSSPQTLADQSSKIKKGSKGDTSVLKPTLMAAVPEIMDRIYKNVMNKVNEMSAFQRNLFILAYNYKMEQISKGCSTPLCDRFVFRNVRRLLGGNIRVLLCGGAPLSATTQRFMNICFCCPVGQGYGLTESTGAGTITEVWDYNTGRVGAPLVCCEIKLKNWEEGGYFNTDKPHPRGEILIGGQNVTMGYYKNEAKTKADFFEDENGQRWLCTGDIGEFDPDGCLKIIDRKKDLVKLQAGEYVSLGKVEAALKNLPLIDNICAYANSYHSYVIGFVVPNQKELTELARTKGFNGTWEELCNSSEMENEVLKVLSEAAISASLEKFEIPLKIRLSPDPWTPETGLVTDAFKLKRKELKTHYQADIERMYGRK

As for `CC/C(=C(\c1ccccc1)c1ccc(OCCN(C)C)cc1)c1ccccc1` [tamoxifen], the “sensitivity to tamoxifen treatment” value in experiment [1] is recorded as “decrease in the sensitivity”.
Take `CCC/C=C/C/C=C/C=C/C=N/NN=O` [triacsin C]: the “effect on the activity of ACSL6” value with ACSL6 is listed as “little or no effect”. Also, the “effect on the activity of ACSL5” value at ACSL5 is listed as “little or no effect”. Further, the “inhibition of ACSL3” value at ACSL3 is “specific for inhibition”. Besides, on ACSL4 (Van Horn et al. 2005), the “inhibition of ACSL4” value was “specific for inhibition”. The “relative sensitivity by reported half-maximal inhibitory concentration values” at ACSL4 (ranking among ACSL1, 3 and 4) was “least sensitive”; at ACSL1 (ranking among ACSL1, 3 and 4), “most sensitive”. Also, the “apoptosis of cancer cells” value in experiment [2] is listed as “induce apoptosis”. Besides, in experiment [2], the “proliferation of cancer cells” value is “inhibit proliferation”. Besides, at ACSL1 (Van Horn et al. 2005), the “inhibition of ACSL1” value is “specific for inhibition”. The “increase in triacsin C sensitivity on ablation of ACSL4” value in the experiment on MDA-MB-231 cells (ACSL4 knockdown versus control MDA-MB-231 cells) is on record as “three-fold increase”. The IC50 in the experiment on MDA-MB-231 cells (MDA-MB-231 ACSL4 knockdown cells (ACSL4-siRNA)) is 0.56 µM; with MDA-MB-231 cells (MDA-MB-231 control cells (control siRNA)), 1.59 µM.
Turning to estrogen, the “growth response to estrogen” value in the experiment on MDA-MB-415 cells was “no significant growth response; also recorded: no increase in cellular proliferation”; in the experiment on MCF-7 cells, “significant growth response; also recorded: proliferative growth effect”; in experiment [3], “became unresponsive to the proliferative effect; also recorded: loss of responsiveness”.
